Experimental data published in patent EP0526502B1, “PHENOLIC AMINE DEPIGMENTING AND ANTIMELANOMA AGENTS” (The Governors of the University of Alberta, priority 1990, dated 1991).

Tests used:
Mushroom tyrosinase = Mushroom tyrosinase (Agaricus bisporus, UniProt C7FF04); test: Enzyme kinetics with tyrosinase (substrate disappearance by HPLC, Lineweaver-Burk); type: biochemical; conditions: result in words
Procedure: (§1) Mushroom tyrosinase (400 units/mg) and plasma MAO (1000 units/gm) were obtained from Sigma Chemical Co. (St. Louis, MO, USA). A reaction mixture consisted of a substrate of 7 to 8 different concentrations (40 to 500 »M for mushroom tyrosinase and 20 to 200 »M for MAO) and of either mushroom tyrosinase (2.5 »g) or MAO (10 »g) in 1.0 mL of 0.05 M sodium phosphate buffer, pH 6.8 and 7.4 respectively. The reactions were carried out at 37°C in a shaking water bath, and stopped by taking 100 »L of the reaction mixture and adding it to 900 »L of 0.4 M HCLO₄. The disappearance of substrate was followed using HPLC (high pressure liquid chromatography) Km and Vmax values were calculated from the Lineweaver-Burk plots.

melanocytes = test: Light and electron microscopy of melanocytes in regrowing hair follicles; type: in vivo, mice
Procedure: In six groups of 4 mice (1 control and 1 for each compound) were treated daily with the control or compound injected i.p. The compounds tested were 4-S-CAP, N-Ac-4-S-CAP and α-Me-4-S-CAP. Samples of skin and regrowing hair follicles were excised under brief general anaesthesia on day 10 (late anagen phase), fixed in Karnovsky's solution (2.5% glutaraldehyde and 2.5% paraformaldehyde in 0l1 M cacodylate buffer), and refixed in 1% osmium tetroxide in cadodylate buffer. Tissues were stained en bloc with 1.5% uranyl acetate in o.1 M veronal buffer for 30min, dehydrated in graded ethanol solutions, embedded in epoxy resin, and sectioned with a Potter-Blum ultramicrotome MT II. Sections 1.0 »m thick were stained with methylene blue for light microscopy, thin sections were stained with led citrate for electron microscopy.

B16 melanoma = test: In vivo growth inhibition of s.c. inoculated B16 melanoma; design: species or system C57BL/6J mice; conditions: day 12 or 13
Procedure: The in vivo antimelanoma effect of the compounds were evaluated by percent growth inhibition of inoculated tumour (%g.i.). The percent g.i. was computed from the mean tumour volume at day 12 or 13 of the experiments; i.e., 100 x (1- treated group/control group). […] To further examine whether a minimal dose of N-Ac-4-S-CAP, 200 mg/Kg has an antimelanoma effect, three groups of mice were treated with N-Ac-4-S-CAP. […] One of the advantages of N-Ac-4-S-CAP over 4-S-CAP was that it had much higher LD⁵⁰ (as high as 1400 mg/Kg of body weight, and therefore a greater range of safety).

plasma MAO = biological target: T1, plasma MAO (Bos taurus, UniProt Q29437); test: Enzyme kinetics with monoamineoxidase (substrate disappearance by HPLC, Lineweaver-Burk); type: biochemical; conditions: result in words
T1 construct: purchased Sigma Chemical Co. (St. Louis, MO, USA)
T1 sequence (Q29437 17-762): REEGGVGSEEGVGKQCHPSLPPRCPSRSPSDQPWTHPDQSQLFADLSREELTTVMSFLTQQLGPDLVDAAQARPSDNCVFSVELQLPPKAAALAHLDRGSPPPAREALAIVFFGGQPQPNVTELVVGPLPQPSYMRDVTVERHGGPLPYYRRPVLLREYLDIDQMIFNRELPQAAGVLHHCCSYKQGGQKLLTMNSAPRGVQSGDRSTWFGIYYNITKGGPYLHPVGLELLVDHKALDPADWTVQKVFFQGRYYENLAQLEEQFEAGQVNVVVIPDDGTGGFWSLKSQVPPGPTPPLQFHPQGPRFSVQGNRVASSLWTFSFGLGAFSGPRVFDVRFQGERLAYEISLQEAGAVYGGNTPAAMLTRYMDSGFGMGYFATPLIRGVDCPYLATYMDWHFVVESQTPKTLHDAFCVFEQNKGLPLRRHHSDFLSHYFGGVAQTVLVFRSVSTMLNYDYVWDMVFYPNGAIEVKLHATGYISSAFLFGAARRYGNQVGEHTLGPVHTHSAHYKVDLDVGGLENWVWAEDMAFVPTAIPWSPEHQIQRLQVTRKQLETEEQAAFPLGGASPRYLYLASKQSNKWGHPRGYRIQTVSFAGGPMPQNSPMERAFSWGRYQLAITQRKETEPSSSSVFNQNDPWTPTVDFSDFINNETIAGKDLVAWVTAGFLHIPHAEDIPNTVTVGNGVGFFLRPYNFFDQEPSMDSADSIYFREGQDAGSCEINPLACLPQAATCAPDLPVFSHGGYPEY
Procedure: as §1

follicular melanocytes = test: Depigmentation of new hair after plucking (PTCA/eumelanin content of hair follicles); type: in vivo, C57BL/6J black mice; conditions: for PTCA Content / Depigmentation: 300 mg/kg daily for 14 days, hair harvested day 22; for Depigmentation: 300 mg/kg
Procedure: Breeding pairs of C57BL/6J black mice were purchased from Jackson Laboratory, Bar Harbor, Maine. Female progeny were used in this testing when approximately 8 weeks old and weighing 17 grams.
Black hairs were plucked manually from the back of the mice to initiate new anagen growth and activate follicular melanocytes with increased tyrosinase activity. Thirty mice were randomized into 6 groups of 5 (1 control and 1 for each compound). Starting on day 1, daily for 14 days the agent was injected i.p. or was infiltrated s.c. in an area where hair follicles had been plucked; the dose was 300 mg/kg body weight.
In the same 30 mice, hair follicles were harvested on day 22 (early telogen phase) and their eumelanin content analyzed. Details of the assay, including chemical degration of melanin and high-performance liquid chromatography (HPLC) were as described in Ito et al, "Quantitative Analysis of Eumelanin and Pheomelanin in Hair and Melanosomes" J. Invest. Dermatol 80:268-272, 1983. Briefly, a 10-mg hair sample is homogenized in water at a concentration of 10 mg/ml; the 200-»l homogenate is transferred to a screw-capped test tube, mixed with 1M H₂SO₄ (800 »L) and oxidized with 3% KMnO₄. The product, pyrrole-2,3,5-tricarboxylic acid (PTCA), is analyzed by HPLC with a UVL detector; samples are measured in duplicate. The eumelanin content is expressed as PTCA (ng/mg) against the PCTA content of BALB/c albino mice as control (≦ 10 ng/mg, the background value with our method, in which 1 ng corresponds roughly to a eumelanin content of 50 ng), and the degree of depigmentation is expressed as a percentage: (PTCA content of control sampleminusPTCA content of experimental sample)/(PCTA content of control sample) x 100 [formula] .

[1] = Experiment I, 200 mg/Kg i.p. daily for nine days
[2] = Experiment I, 400 mg/Kg i.p. daily for nine days
[3] = Experiment I, 600 mg/Kg i.p. daily for nine days
[4] = Experiment I, 800 mg/Kg i.p. daily for nine days
[5] = Experiment II, 400 mg/Kg i.p. daily for nine days
[6] = Experiment II, 800 mg/Kg i.p. daily for nine days
[7] = Experiment II, 1200 mg/Kg i.p. daily for nine days

Sequence of Mushroom tyrosinase (C7FF04 1-392): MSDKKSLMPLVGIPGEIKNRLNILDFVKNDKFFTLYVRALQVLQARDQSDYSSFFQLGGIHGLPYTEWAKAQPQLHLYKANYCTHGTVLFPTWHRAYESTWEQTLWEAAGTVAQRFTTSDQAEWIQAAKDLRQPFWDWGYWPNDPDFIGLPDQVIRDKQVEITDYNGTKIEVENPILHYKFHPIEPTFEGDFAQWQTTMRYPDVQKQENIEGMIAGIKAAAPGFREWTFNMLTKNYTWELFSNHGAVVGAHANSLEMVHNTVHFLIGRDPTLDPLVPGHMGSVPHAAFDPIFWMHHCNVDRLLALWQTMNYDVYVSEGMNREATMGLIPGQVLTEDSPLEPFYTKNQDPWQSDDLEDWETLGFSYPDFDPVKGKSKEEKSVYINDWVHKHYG

CC(=O)NCCSc1ccc(O)cc1 [N-Ac-4-S-CAP, N-ACETYL-4-S-CYSTEAMINYLPHENOL]
tyrosinase substrate (Mushroom tyrosinase): is also a tyrosinase substrate
light microscopy of hair follicles: functioning melanocytes and melanin pigments (melanocytes; i.p. daily, day 10 (late anagen phase)): neither functioning melanocytes nor melanin pigments remained in the follicles
electron microscopy of hair follicles: melanocytes and melanosomes (melanocytes; i.p. injection for 10 days): no melanocytes or melanosomes were visible
%Gi (B16 melanoma; [1]): 39.8%
Tumour Volume (B16 melanoma; [1]): 313 ± 83 mm^3
%Gi (B16 melanoma; [2]): 57.3%
Tumour Volume (B16 melanoma; [2]): 222 ± 13 mm^3
%Gi (B16 melanoma; [3]): 63.18%
Tumour Volume (B16 melanoma; [3]): 192 ± 48 mm^3
%Gi (B16 melanoma; [4]): 74.4%
Tumour Volume (B16 melanoma; [4]): 133 ± 11 mm^3
%Gi (B16 melanoma; Experiment II, 200 mg/Kg i.p. daily for nine days): 32.0%
%Gi (B16 melanoma; [5]): 34.0%
Tumour Volume (B16 melanoma; [5]): 359 ± 52 mm^3
%Gi (B16 melanoma; [6]): 63.4%
Tumour Volume (B16 melanoma; [6]): 199 ± 26 mm^3
%Gi (B16 melanoma; [7]): 70.7%
Tumour Volume (B16 melanoma; [7]): 159 ± 23 mm^3
substrate for plasma MAO (plasma MAO): not, however, a substrate for plasma MAO
PTCA Content (follicular melanocytes; Route s.c.): 30.8 ± 9.1 ng/mg
Depigmentation (follicular melanocytes; Route s.c.): 97.2%
PTCA Content (follicular melanocytes; Route: i.p.): 26.0 ± 10.3 ng/mg
Depigmentation (follicular melanocytes; Route: i.p.): 97.6%
visible pigmentation of new hair (follicular melanocytes; i.p. or s.c. route, result in words): almost pure white as in albino mice
